# In patent US6737383B1, “Herbicidal oxadiazolidines” (priority 1999, dated 2004):
# Legend:
# [1] = tested on: pigweed; assay: Test B pre/postemergence pigweed; format: in vivo, Amaranthus retroflexus
# In short: (§1)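 Response is a visual 0-to-10 score relative to untreated plants, where 0 means no effect and 10 means complete control, taken twelve to sixteen days after application. Treatments went onto soil at planting and onto foliage of 1- to 4-leaf plants, using a surfactant-containing non-phytotoxic solvent.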
# [2] = tested on: blackgrass; assay: Test B pre/postemergence blackgrass; format: in vivo, Alopecurus myosuroides
# In short: as §1
# [3] = tested on: sugar beet; assay: Test B pre/postemergence sugar beet; format: in vivo, Beta vulgaris
# In short: as §1
# [4] = tested on: cocklebur; assay: Test B pre/postemergence cocklebur; format: in vivo, Xanthium strumarium
# In short: as §1
# [5] = tested on: velvetleaf; assay: Test B pre/postemergence velvetleaf; format: in vivo, Abutilon theophrasti
# In short: as §1
# [6] = tested on: soybean; assay: Test B pre/postemergence soybean; format: in vivo, Glycine max
# In short: as §1
# [7] = tested on: bedstraw; assay: Test B pre/postemergence bedstraw; format: in vivo, Galium aparine; settings: Preemergence
# In short: as §1
# [8] = tested on: wheat; assay: Test B pre/postemergence wheat; format: in vivo, Triticum aestivum
# In short: as §1
# [9] = tested on: giant foxtail; assay: Test B pre/postemergence giant foxtail; format: in vivo, Setaria faberii
# In short: as §1
# [10] = tested on: morningglory; assay: Test B pre/postemergence morningglory; format: in vivo, Ipomoea hederacea
# In short: as §1
# [11] = tested on: crabgrass; assay: Test B pre/postemergence crabgrass; format: in vivo, Digitaria sanguinalis
# In short: as §1
# [12] = tested on: surinam grass; assay: Test B pre/postemergence surinam grass; format: in vivo, Brachiaria decumbens
# In short: as §1
# [13] = tested on: rape; assay: Test B pre/postemergence rape; format: in vivo, Brassica napus
# In short: as §1
# [14] = tested on: purple nutsedge; assay: Test B pre/postemergence purple nutsedge; format: in vivo, Cyperus rotundus
# In short: as §1
# [15] = tested on: wild oat; assay: Test B pre/postemergence wild oat; format: in vivo, Avena fatua
# In short: as §1
# [16] = tested on: corn; assay: Test B pre/postemergence corn; format: in vivo, Zea mays
# In short: as §1
# [17] = Postemergence, Rate 62 g/ha, scale 0 to 10, 0 is no effect, 10 is complete control
# [18] = Postemergence, Rate 125 g/ha, scale of 0 to 10 where 0 is no effect and 10 is complete control
# [19] = Preemergence, Rate 62 g/ha, scale of 0 to 10 where 0 is no effect and 10 is complete control
# [20] = Preemergence, Rate 125 g/ha, scale of 0 to 10 where 0 is no effect and 10 is complete control
# [21] = Preemergence, Rate 250 g/ha, scale 0 to 10 (0 no effect, 10 complete control)
# [22] = Preemergence, Rate 500 g/ha, scale of 0 to 10 where 0 is no effect and 10 is complete control
# [23] = Rate 500 g/ha, Postemergence, scale 0 to 10, 0 is no effect, 10 is complete control
# [24] = Postemergence, Rate 250 g/ha, scale of 0 to 10, 0 is no effect, 10 is complete control
smiles,measurement,setting,value
C#CC(C=C(C)C)n1c(=O)on(C(=O)N(c2ccccc2)C(C)C)c1=O (centres unmarked) [Compound 652],"Plant response rating, Redroot pigweed",[1]; [17],0
same,Redroot pigweed plant response rating,[1]; [18],0
same,Redroot pigweed plant response rating,[1]; [19],0
same,Redroot pigweed plant response rating,[1]; [20],0
same,"Plant response rating, Redroot pigweed",[1]; [21],0
same,"Plant response rating, Redroot pigweed",[1]; [22],0
same,Redroot pigweed plant response rating,[1]; [23],6
same,"Plant response rating, Blackgrass",[2]; [17],0
same,Blackgrass plant response rating,[2]; [18],0
same,Blackgrass plant response rating,[2]; [24],0
same,Blackgrass plant response rating,[2]; [19],0
same,Blackgrass plant response rating,[2]; [20],0
same,"Plant response rating, Blackgrass",[2]; [21],0
same,"Plant response rating, Blackgrass",[2]; [22],2
same,Blackgrass plant response rating,[2]; [23],0
same,"Plant response rating, Sugarbeets",[3]; [17],0
same,Sugarbeets plant response rating,[3]; [19],0
same,Sugarbeets plant response rating,[3]; [20],0
same,"Plant response rating, Sugarbeets",[3]; [21],0
same,"Plant response rating, Sugarbeets",[3]; [22],0
same,Sugarbeets plant response rating,[3]; [23],2
same,"Plant response rating, Cocklebur",[4]; [17],0
same,Cocklebur plant response rating,[4]; [18],0
same,Cocklebur plant response rating,[4]; [24],0
same,Cocklebur plant response rating,[4]; [19],0
same,Cocklebur plant response rating,[4]; [20],0
same,"Plant response rating, Cocklebur",[4]; [21],0
same,"Plant response rating, Cocklebur",[4]; [22],3
same,Cocklebur plant response rating,[4]; [23],0
same,"Plant response rating, Velvetleaf",[5]; [17],0
same,Velvetleaf plant response rating,[5]; [18],0
same,Velvetleaf plant response rating,[5]; [19],0
same,Velvetleaf plant response rating,[5]; [20],0
same,"Plant response rating, Velvetleaf",[5]; [21],0
same,"Plant response rating, Velvetleaf",[5]; [22],1
same,Velvetleaf plant response rating,[5]; [23],0
same,"Plant response rating, Soybean",[6]; [17],0
same,Soybean plant response rating,[6]; [18],0
same,Soybean plant response rating,[6]; [19],0
same,Soybean plant response rating,[6]; [20],0
same,"Plant response rating, Soybean",[6]; [21],0
same,"Plant response rating, Soybean",[6]; [22],0
same,Soybean plant response rating,[6]; [23],3
same,Bedstraw plant response rating,"[7]; Rate 62 g/ha, scale of 0 to 10 where 0 is no effect and 10 is complete control",0
same,Bedstraw plant response rating,"[7]; Rate 125 g/ha, scale of 0 to 10 where 0 is no effect and 10 is complete control",0
same,"Plant response rating, Bedstraw","[7]; Rate 250 g/ha, scale 0 to 10 (0 no effect, 10 complete control)",0
same,"Plant response rating, Bedstraw","[7]; Rate 500 g/ha, scale of 0 to 10 where 0 is no effect and 10 is complete control",0
same,"Plant response rating, Wheat",[8]; [17],0
same,Wheat plant response rating,[8]; [18],0
same,Wheat plant response rating,[8]; [19],0
same,Wheat plant response rating,[8]; [20],0
same,"Plant response rating, Wheat",[8]; [21],0
same,"Plant response rating, Wheat",[8]; [22],0
same,Wheat plant response rating,[8]; [23],2
same,"Plant response rating, Giant foxtail",[9]; [17],0
same,Giant foxtail plant response rating,[9]; [18],3
same,Giant foxtail plant response rating,[9]; [24],4
same,Giant foxtail plant response rating,[9]; [19],8
same,Giant foxtail plant response rating,[9]; [20],9
same,"Plant response rating, Giant foxtail",[9]; [21],9
same,"Plant response rating, Giant foxtail",[9]; [22],9
same,Giant foxtail plant response rating,[9]; [23],8
same,"Plant response rating, Morningglory",[10]; [17],3
same,Morningglory plant response rating,[10]; [18],3
same,Morningglory plant response rating,[10]; [24],5
same,Morningglory plant response rating,[10]; [19],0
same,Morningglory plant response rating,[10]; [20],0
same,"Plant response rating, Morningglory",[10]; [21],0
same,"Plant response rating, Morningglory",[10]; [22],0
same,Morningglory plant response rating,[10]; [23],7
same,"Plant response rating, Crabgrass",[11]; [17],0
same,Crabgrass plant response rating,[11]; [18],0
same,Crabgrass plant response rating,[11]; [24],0
same,Crabgrass plant response rating,[11]; [19],4
same,Crabgrass plant response rating,[11]; [20],8
same,"Plant response rating, Crabgrass",[11]; [21],8
same,"Plant response rating, Crabgrass",[11]; [22],9
same,Crabgrass plant response rating,[11]; [23],6
same,"Plant response rating, B. signalgrass",[12]; [17],0
same,"Plant response rating, B. signalgrass",[12]; [18],0
same,B. signalgrass plant response rating,[12]; [24],0
same,B. signalgrass plant response rating,[12]; [19],0
same,B. signalgrass plant response rating,[12]; [20],0
same,"Plant response rating, B. signalgrass",[12]; [21],2
same,"Plant response rating, B. signalgrass",[12]; [22],2
same,B. signalgrass plant response rating,[12]; [23],2
same,"Plant response rating, Rape",[13]; [17],0
same,Rape plant response rating,[13]; [19],0
same,Rape plant response rating,[13]; [20],0
same,"Plant response rating, Rape",[13]; [21],0
same,"Plant response rating, Rape",[13]; [22],0
same,Rape plant response rating,[13]; [23],0
same,Nutsedge plant response rating,[14]; [18],0
same,Nutsedge plant response rating,[14]; [19],0
same,Nutsedge plant response rating,[14]; [20],0
same,"Plant response rating, Nutsedge",[14]; [21],0
same,"Plant response rating, Nutsedge",[14]; [22],3
same,Nutsedge plant response rating,[14]; [23],0
same,"Plant response rating, Wild oats",[15]; [17],0
same,Wild oats plant response rating,[15]; [18],0
same,Wild oats plant response rating,[15]; [19],0
same,Wild oats plant response rating,[15]; [20],0
same,"Plant response rating, Wild oats",[15]; [21],0
same,"Plant response rating, Wild oats",[15]; [22],0
same,Wild oats plant response rating,[15]; [23],0
same,"Plant response rating, Corn",[16]; [17],0
same,Corn plant response rating,[16]; [18],0
same,Corn plant response rating,[16]; [24],0
same,Corn plant response rating,[16]; [19],0
same,Corn plant response rating,[16]; [20],0
same,"Plant response rating, Corn",[16]; [21],0
same,"Plant response rating, Corn",[16]; [22],0
same,Corn plant response rating,[16]; [23],0
